{"source": "paper PMC7495477", "about": "“IMPROvER: the Integral Membrane Protein Stability Selector” (Scientific Reports, 2020)", "target": "T1, ClPPase (membrane-bound pyrophosphatase from Clostridium leptum) ([Clostridium] leptum, UniProt A7VNH8)", "T1 construct": "gene hppA; N-terminal 8xHis-tag, superfolder GFP and TEV site kept; synthetic gene in pDDGFP; expressed in S. cerevisiae FGY217 membranes; about 700 residues; dimer", "T1 sequence (A7VNH8 1-700)": "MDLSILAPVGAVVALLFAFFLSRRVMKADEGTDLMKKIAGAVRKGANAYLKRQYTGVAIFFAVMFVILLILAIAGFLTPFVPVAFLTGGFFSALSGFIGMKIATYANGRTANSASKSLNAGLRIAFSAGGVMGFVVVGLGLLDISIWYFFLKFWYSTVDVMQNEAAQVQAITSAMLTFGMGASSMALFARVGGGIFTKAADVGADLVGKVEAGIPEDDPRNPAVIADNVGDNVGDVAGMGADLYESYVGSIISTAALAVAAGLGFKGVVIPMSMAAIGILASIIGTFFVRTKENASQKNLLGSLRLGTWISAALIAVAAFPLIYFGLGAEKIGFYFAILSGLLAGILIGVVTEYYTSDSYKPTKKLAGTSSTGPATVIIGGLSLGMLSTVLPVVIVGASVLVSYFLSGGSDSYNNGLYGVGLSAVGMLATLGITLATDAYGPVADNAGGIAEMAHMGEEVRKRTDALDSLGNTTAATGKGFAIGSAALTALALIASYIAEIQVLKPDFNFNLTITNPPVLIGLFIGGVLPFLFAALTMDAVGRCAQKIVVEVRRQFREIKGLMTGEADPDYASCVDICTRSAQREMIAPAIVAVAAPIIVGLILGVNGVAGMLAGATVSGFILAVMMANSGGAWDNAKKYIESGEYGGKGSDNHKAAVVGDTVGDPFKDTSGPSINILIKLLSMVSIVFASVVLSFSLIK", "experiment": "colorimetric phosphate release assay on yeast membranes", "assay_type": "biochemical", "settings": "tris-HCl pH 8, MgCl2, KCl, NaCl, NaF, gramicidin, 10 uL of 2 mM tetrabasic sodium pyrophosphate in 50 uL, 30 C, 10 min", "data": [{"smiles": "O=P(O)(O)OP(=O)(O)O", "note": "[PPi]", "values": [{"measurement": "colorimetric phosphate release assay on yeast membranes", "value": "The hydrolytic activity of wild-type and variant ClPPase in the membrane was assessed"}]}]}
